This note sets out measurements from patent publication US5646173A, “Tricyclic pyrrole derivatives useful as 5-HT selective agents” (Hoffmann-La Roche Inc., priority 1993, dated 1997).

Experiment [1] deals with T1, 5HT2C receptor (Sus scrofa, UniProt K7GSR7).
T1 construct: from tissue
T1 sequence (K7GSR7 1-457): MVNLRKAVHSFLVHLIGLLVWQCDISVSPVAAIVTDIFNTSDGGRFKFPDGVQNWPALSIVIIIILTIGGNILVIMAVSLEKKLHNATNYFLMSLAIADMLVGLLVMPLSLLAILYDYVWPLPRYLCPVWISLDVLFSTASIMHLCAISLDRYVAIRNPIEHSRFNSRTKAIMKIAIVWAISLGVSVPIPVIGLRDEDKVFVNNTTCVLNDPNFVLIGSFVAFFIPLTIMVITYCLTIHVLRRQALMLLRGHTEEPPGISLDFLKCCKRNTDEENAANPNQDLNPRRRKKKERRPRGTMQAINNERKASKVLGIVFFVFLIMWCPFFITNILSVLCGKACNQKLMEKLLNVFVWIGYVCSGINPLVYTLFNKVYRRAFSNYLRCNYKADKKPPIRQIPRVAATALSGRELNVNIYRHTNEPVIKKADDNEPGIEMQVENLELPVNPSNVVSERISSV
Kind of experiment: 3H-mesulergine binding assay (Method I b). The protocol:
(§1) The binding of the compounds of formula I in accordance with the invention to serotonin receptors was determined in vitro by standard methods. The preparations were investigated in accordance with the assays given hereinafter:
b) For the binding to the 5HT2C receptor in accordance with the ^3 H-mesulergine binding assay according to the method of A. Pazos et al., Europ. J. Pharmacol. 106, 539-546 or. D. Hoyer, Receptor Research 8, 59-81 (1988).

In the next experiment the target is 5HT1A receptor. Nature of the experiment: 3H-8-OH-DPAT binding assay (Method I a). As to conditions: read-out: IC50, test method a. How it is done:
The binding of the compounds of formula I in accordance with the invention to serotonin receptors was determined in vitro by standard methods. The preparations were investigated in accordance with the assays given hereinafter: […]

For experiment [2], the target named is T2, 5HT2A receptor (Rattus norvegicus, UniProt P14842).
T2 construct: from tissue; host or cells: rat frontal cortex membranes (inferred from the cited method)
T2 sequence (P14842 whole entry): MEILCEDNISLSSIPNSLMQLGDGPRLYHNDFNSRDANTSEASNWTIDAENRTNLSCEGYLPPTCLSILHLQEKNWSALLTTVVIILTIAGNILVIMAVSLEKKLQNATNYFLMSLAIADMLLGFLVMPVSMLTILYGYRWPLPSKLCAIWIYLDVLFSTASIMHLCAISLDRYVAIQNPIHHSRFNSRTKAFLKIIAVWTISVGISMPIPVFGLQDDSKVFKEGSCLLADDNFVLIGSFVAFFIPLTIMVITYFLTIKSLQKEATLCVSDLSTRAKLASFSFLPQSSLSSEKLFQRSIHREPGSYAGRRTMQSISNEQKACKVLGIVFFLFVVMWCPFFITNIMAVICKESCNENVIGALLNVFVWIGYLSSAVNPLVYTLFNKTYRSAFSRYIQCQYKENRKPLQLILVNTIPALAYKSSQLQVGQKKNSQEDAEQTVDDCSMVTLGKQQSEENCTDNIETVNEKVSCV
Kind of experiment: biochemical. It counts as binding. The protocol: as §1
c) For the binding to the 5HT2A receptor in accordance with the ^3 H-ketanserine binding assay according to the method of J. E. Leysen, Molecular Pharmacology 21, 301-304 (1981).

Another experiment has as its target T3, human-5HT1A receptors (Homo sapiens, UniProt P08908).
T3 construct: expressed in transfected cells; host or cells: mouse 3T3 cells
T3 sequence (P08908 1-422): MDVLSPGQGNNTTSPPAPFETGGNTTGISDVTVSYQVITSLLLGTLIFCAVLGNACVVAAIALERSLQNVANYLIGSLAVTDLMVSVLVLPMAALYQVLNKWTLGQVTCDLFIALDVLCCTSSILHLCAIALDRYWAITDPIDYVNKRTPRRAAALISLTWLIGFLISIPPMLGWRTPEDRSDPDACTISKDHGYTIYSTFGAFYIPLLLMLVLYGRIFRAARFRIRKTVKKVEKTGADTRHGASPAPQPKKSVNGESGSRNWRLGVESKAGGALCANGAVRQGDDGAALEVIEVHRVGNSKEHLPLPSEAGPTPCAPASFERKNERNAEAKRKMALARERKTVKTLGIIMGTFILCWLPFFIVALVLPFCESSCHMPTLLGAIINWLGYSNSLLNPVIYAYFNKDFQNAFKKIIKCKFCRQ
Nature of the experiment: [3H]-5-HT displacement on recombinant human 5HT1A receptors expressed in 3T3 cells of mice (Method II a). In kind it is binding. The source says: [L] is the concentration of ligand and the KD value is the dissociation constant of the ligand.

Experiment [3] has as its target T4, 5HT2A receptor (Homo sapiens, UniProt P28223).
T4 construct: expressed in transfected cells; host or cells: transfected mammalian cells (inferred from the cited method)
Kind of experiment: [3H]-DOB binding assay (Method II c). An excerpt:
c) For the binding to the 5HT2A receptor in accordance with the [3H]-DOB binding assay according to the method of T. Branchek et al., Molecular Pharmacology 38, 604-609 (1990).
(§2) The pki values (pki =-log^10 Ki) of the test substances are given. […] [L] is the concentration of ligand and the KD value is the dissociation constant of the ligand.

In experiment [4] the target is T5, 5HT2C receptor (Rattus norvegicus, UniProt P08909).
T5 sequence (P08909 33-460): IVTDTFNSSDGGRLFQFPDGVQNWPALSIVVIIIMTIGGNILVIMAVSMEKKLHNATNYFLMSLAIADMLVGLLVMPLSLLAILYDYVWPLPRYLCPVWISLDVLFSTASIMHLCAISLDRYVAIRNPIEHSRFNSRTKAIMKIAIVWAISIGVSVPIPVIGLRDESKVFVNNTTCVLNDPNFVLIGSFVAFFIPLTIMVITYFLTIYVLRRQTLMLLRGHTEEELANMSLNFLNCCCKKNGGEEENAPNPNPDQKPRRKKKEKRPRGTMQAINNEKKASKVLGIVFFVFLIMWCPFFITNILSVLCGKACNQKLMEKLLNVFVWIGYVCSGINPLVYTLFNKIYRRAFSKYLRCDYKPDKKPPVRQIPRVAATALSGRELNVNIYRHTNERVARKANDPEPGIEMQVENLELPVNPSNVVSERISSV
Kind of experiment: [3H]-5-HT binding assay (Method II b). On the set-up: expressed in transfected cells; host or cells: clonal 5-HT1C cell line.
Text: b) For the binding to the 5HT2C receptor in accordance with the [3H]-5-HT binding assay according to the method of S. J. Peroutka et al., Brain Research 584, 191-196 (1992).
as §2

Setting [5] is: 5HT2C, 3H-mesulergine, Method I, read-out: IC50, test method b.

Counter-ions that a name gives are not always drawn. Like-named read-outs stand apart in the source and are kept apart here.

T4 sequence (P28223 whole entry): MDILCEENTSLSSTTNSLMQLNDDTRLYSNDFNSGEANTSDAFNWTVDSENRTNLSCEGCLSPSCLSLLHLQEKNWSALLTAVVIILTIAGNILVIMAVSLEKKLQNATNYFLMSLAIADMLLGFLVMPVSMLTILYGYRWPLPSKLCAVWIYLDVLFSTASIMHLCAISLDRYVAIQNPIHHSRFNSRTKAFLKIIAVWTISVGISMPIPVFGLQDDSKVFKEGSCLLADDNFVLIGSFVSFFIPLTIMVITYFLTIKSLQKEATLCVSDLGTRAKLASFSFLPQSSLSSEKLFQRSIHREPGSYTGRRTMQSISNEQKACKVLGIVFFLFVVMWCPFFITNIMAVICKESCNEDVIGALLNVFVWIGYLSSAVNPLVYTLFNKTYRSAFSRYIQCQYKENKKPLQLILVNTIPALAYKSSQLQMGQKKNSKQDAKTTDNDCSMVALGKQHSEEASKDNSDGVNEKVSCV

In general, IC50 refers to the concentration needed to halve the response being measured. Take `Cc1nc2sccn2c(=O)c1CCN1CCC(=C(c2ccc(F)cc2)c2ccc(F)cc2)CC1` [Ritanserine, reference compound]: the IC50 at 5HT2C receptor [1] was determined as 37 nM.

With `CC(N)Cn1ccc2c1-c1ccccc1OC2` (racemic) [Example 34, (RS)-1-(1,4-dihydro-[1]benzopyrano-[4,3-b]pyrrol-1-yl)-1-methyl-ethylaminefumarate (1:0.5)], the IC50 at 5HT1A receptor amounted to 1620 nM; at 5HT2C receptor [1] (setting [5]), 107 nM; against 5HT2A receptor [2], 2640 nM.

As for `COc1ccc2c(c1)-c1c(ccn1CC(C)N)C2` (racemic) [Example 22, (RS)-2-(7-methoxy-1,4-dihydro-indeno[1,2-b]pyrrol-1-yl)-1-methyl-ethylamine fumarate (1:0.5)], the IC50 on 5HT1A receptor was determined as 1590 nM; on 5HT2C receptor [1], 30.4 nM; at 5HT2A receptor [2] it was 1400 nM.

In the case of `COc1cccc2c1-c1c(ccn1CC(C)N)C2` (racemic) [Example 67, (RS)-2-(8-methoxy-1,4-dihydro-indeno[1,2-b]pyrrol-1-yl)-1-methyl-ethylamine fumarate (1:0.5)], the figures for the IC50 at 5HT1A receptor, on 5HT2C receptor [1] and at 5HT2A receptor [2] were 1750 nM, 146 nM and 1070 nM, respectively.

Take `Cc1nc2ccccn2c(=O)c1CCN1CCC(C(=O)c2ccc(F)cc2)CC1` [Pirenperone, reference compound]: the IC50 at 5HT1A receptor worked out at 2880 nM; at 5HT2C receptor [1], 37 nM; at 5HT2A receptor [2], 2.9 nM.

What is called Ki is the dissociation constant of the complex between target and ligand, obtained from inhibition or displacement. With `C[C@H](N)Cn1ccc2c1-c1cc(F)ccc1C2(C)C` [Example 9, (S)-2-(7-fluoro-4,4-dimethyl-1,4-dihydro-indeno[1,2-b]pyrrol-1-yl)-1-methyl-ethylamine fumarate (1:1)], the Ki on human-5HT1A receptors is 2750 nM; at 5HT2A receptor [3] it was 34.7 nM; on 5HT2C receptor [4], 5.13 nM.

In the case of `COc1ccc2c(c1)-c1c(ccn1C(C)(C)N)CO2` [Example 54, (RS)1-(8-methoxy-1,4-dihydro[1]benzopyrano[4,3b]pyrrol1-yl)-1-methyl-ethylamine], the IC50 at 5HT1A receptor came to 825 nM; at 5HT2C receptor [1] (setting [5]), 116 nM; on 5HT2A receptor [2] (5HT2A, 3H-ketanserine, Method I, read-out: IC50, test method c), 2590 nM.

Consider `COc1ccc2ccc3ccn(C[C@H](C)N)c3c2c1` [Example 7, (S)-2-(8-methoxy-1H-benz[g]indol-1-yl)-1-methyl-ethylamine fumarate (1:0.5)], for which the IC50 amounted to 2160 nM at 5HT1A receptor, 24 nM at 5HT2C receptor [1] and 1200 nM against 5HT2A receptor [2].

On to `COc1ccccc1N1CCN(CCCCN2C(=O)c3ccccc3C2=O)CC1` [NAN-190, reference compound], for which the IC50 at 5HT1A receptor was 0.56 nM; on 5HT2C receptor [1], 1800 nM; against 5HT2A receptor [2] it was 581 nM.

As to `CN1C[C@H](CNC(=O)OCc2ccccc2)C[C@@H]2c3cccc4c3c(cn4C)C[C@H]21` [Metergoline, reference compound], the IC50 on 5HT2C receptor [1] turned out to be 5.5 nM.

In the case of `COc1ccc2ccc3ccn(CCN)c3c2c1` [Example 32, 2-(8-methoxy-1H-benz[g]indol-1-yl)-ethylamine fumarate (1:1)], the IC50 amounted to 139 nM on 5HT1A receptor, 18 nM at 5HT2C receptor [1] and 1670 nM against 5HT2A receptor [2].

As to `COc1ccc2[nH]cc(C3=CCNCC3)c2c1` [RU 24969, reference compound], the IC50 at 5HT1A receptor was 8 nM.

For the molecule `COc1ccc2c(c1)-c1c(ccn1CCN)C2` [Example 23, 2-(7-methoxy-1,4-dihydro-indeno[1,2-b]pyrrol-1-yl)-ethylamine fumarate (1:1)], the IC50 turned out to be 347 nM on 5HT1A receptor, 45.2 nM on 5HT2C receptor [1] and 3340 nM against 5HT2A receptor [2].

For the molecule `CC(N)Cn1ccc2c1-c1ccccc1C2c1ccccc1` (racemic) [Example 69, (2RS/4RS)-2-(4-phenyl-1,4-dihydro-indeno[1,2-b]pyrrol-1-yl)-1-methyl-ethylamine fumarate (1:0.86)], the IC50 on 5HT1A receptor is 3460 nM; at 5HT2C receptor [1], 143 nM; against 5HT2A receptor [2], 854 nM.

For `COc1ccc2ccc3ccn(C[C@@H](C)N)c3c2c1` [Example 31, (R)-2-(8-methoxy-1H-benz[g]indol-1-yl)-1-methyl-ethylamine fumarate (1:0.5)], the half-maximal inhibitory concentration (IC50) was 337 nM on 5HT1A receptor, 28.1 nM on 5HT2C receptor [1] and 874 nM against 5HT2A receptor [2].

Regarding `COc1ccc2c(c1)-c1c(ccn1CCN)CC2` [Example 59, 2-(4,5-dihydro-8-methoxy-1H-benz[g]indol-1-yl)-ethylamine fumarate (1:1)], the IC50 was 97 nM on 5HT1A receptor, 23.8 nM at 5HT2C receptor [1] and 1510 nM on 5HT2A receptor [2].

On to `CC(N)Cn1ccc2c1-c1cc(Cl)ccc1C2` (racemic) [Example 21, (RS)-2-(7-chloro-1,4-dihydro-indeno[1,2-b]pyrrol-1-yl)-1-methyl-ethylaminefumarate (1:0.5)], for which the IC50 at 5HT1A receptor was determined as 1350 nM; on 5HT2C receptor [1], 56.6 nM; against 5HT2A receptor [2], 2540 nM.

As for `Clc1cccc(N2CCNCC2)c1` [mCPP, reference compound], the IC50 at 5HT1A receptor was found to be 227 nM; on 5HT2C receptor [1] (setting [5]), 53 nM; against 5HT2A receptor [2], 319 nM.

Consider `COc1ccc2c(c1)-c1c(ccn1C[C@@H](C)N)CC2` [Example 30, (R)-2-(4,5-dihydro-8-methoxy-1H-benz[g]indol-1-yl)-1-methyl-ethylamine fumarate (1:1)], for which the concentration for half-maximal inhibition (IC50) is 298 nM on 5HT1A receptor, 58.1 nM on 5HT2C receptor [1] and 479 nM at 5HT2A receptor [2].

For `COc1ccc2c(c1)Cc1ccn(CC(C)N)c1-2` (racemic) [Example 55, (RS)-2-(6-methoxy-1,4-dihydro-indeno[1,2-b]pyrrol-1-yl)-1-methyl-ethylamine fumarate (1:0.5)], the IC50 was 1260 nM on 5HT1A receptor, 371 nM at 5HT2C receptor [1] and 8350 nM against 5HT2A receptor [2].

On to `CC(N)Cn1ccc2c1-c1ccccc1SC2` (racemic) [Example 64], for which the IC50 at 5HT1A receptor turned out to be 384 nM; on 5HT2C receptor [1] (setting [5]) it was 85.4 nM; at 5HT2A receptor [2], 773 nM.

`CC(N)Cn1ccc2c1-c1ccc(Cl)cc1C2` (racemic) [Example 53, (RS)-2-(6-chloro-1,4-dihydro-indeno[1,2-b]pyrrol-1-yl)-1-methyl-ethylaminefumarate (1:0.5)]: the figures for the IC50 on 5HT1A receptor, on 5HT2C receptor [1] and against 5HT2A receptor [2] were 1100 nM, 308 nM and 11300 nM, respectively.

Take `O=c1ccc2[nH]cc(C3=CCNCC3)c2[nH]1` [CP 93129, reference compound]: the values for the IC50 at 5HT1A receptor and against 5HT2A receptor [2] were 1620 nM and 29200 nM, respectively.

Consider `COc1ccc2c(c1)-c1c(ccn1C[C@@H](C)N)C2` [Example 28, (R)-2-(7-methoxy-1,4-dihydro-indeno[1,2-b]pyrrol-1-yl)-1-methyl-ethylaminefumarate (1:0.5)], for which the IC50 worked out at 1070 nM on 5HT1A receptor, 78.7 nM at 5HT2C receptor [1] and 1630 nM against 5HT2A receptor [2].
